We go through eight molecules from article PMC9894920, “Development of an improved and specific inhibitor of NADPH oxidase 2 to treat traumatic brain injury” (Redox Biology, 2023).

Data set [1] can be described thus: Parallel artificial membrane permeability assay (PAMPA). Type of data set: in vitro ADME. Conditions: for Papp: pH 7.4, PAMPA, pH7.4, read-out: Permeability(pH7.4) (PAMPA_Pion_Lipid 1e-6 cm/s). On the procedure:
(§1) The rat liver microsomal stability, parallel artificial membrane permeability assay (PAMPA), and aqueous kinetic solubility assay in phosphate-buffered saline (PBS) buffer were performed as described in the indicated references.

The target of the next data set is T1, Bovine Xanthine Oxidase (Bos taurus, UniProt P80457).
T1 construct: purchased Sigma
In words: Xanthine oxidase / hypoxanthine luminol chemiluminescence assay. It counts as biochemical. Conditions: xanthine oxidase with hypoxanthine; mean ± SD, n in cell; read-out: X/XO IC50. As for the experimental part:
Bovine Xanthine Oxidase (Sigma) was dialyzed in PBS to remove ammonium sulfate and stored at 4 °C. Hypoxanthine was prepared by heating in DMSO. Reactions were prepared by diluting xanthine oxidase in HBSS (final concentration 1.25 mU/mL) that contained 50 μM luminol and were preincubated 5 min with control or inhibitor before the addition of hypoxanthine at a final concentration of 0.5 mM. Luminescence was measured at 24 °C as described above.

Data set [2] concerns the target T2, NOX2 (Mus musculus, UniProt Q61093).
T2 construct: relative potencies in primary mouse neutrophils enriched from bone marrow; endogenous in cells; host or cells: primary mouse bone-marrow granulocytes
T2 sequence (Q61093 2-570 limits assumed): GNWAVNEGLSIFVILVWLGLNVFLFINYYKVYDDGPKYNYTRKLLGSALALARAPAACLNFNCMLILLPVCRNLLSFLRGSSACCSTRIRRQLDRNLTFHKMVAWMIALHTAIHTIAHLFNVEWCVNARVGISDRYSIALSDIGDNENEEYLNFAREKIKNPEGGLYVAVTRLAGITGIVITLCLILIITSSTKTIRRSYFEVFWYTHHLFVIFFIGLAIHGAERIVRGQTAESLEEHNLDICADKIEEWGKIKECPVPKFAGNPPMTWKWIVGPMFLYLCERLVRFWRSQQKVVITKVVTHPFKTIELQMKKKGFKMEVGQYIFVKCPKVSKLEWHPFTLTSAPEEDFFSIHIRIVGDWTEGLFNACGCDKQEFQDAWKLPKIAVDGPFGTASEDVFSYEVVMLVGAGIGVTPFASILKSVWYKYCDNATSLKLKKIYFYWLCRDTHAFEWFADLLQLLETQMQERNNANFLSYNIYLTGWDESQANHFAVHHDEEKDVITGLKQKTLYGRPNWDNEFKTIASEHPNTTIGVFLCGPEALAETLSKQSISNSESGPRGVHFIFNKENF
T2 sequence (Q61462 2-192 partner limits assumed): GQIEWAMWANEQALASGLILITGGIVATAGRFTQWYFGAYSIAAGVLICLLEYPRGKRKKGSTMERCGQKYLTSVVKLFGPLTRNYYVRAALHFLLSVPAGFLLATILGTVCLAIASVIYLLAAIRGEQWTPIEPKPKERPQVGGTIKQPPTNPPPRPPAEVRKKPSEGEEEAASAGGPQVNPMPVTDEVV
Put plainly: NOX2 activity in primary mouse neutrophils enriched from bone marrow. It counts as cell-based. Conditions: SD, n = 8 mice. On the procedure:
(§2) Human blood was obtained after informed consent by the Department of Transfusion Medicine (NIH Clinical Center) and provided as de-identified specimens. Human granulocytes were isolated using Percoll density fractionation as described and NOX2 activity was assessed in white polypropylene flat bottom 96 well plates following 15 min of preincubation at 37 °C with compounds or vehicle controls using 50 μM luminol as a chemiluminescence enhancer in an assay volume of 100 μl RPMI1640 with 1.1 × 10^5 cells/well in Varioskan Lux luminometer for 30 cycles of 1 s per well (approximately 1 h).
Mouse granulocytes were isolated from bone marrow essentially as described except bones were not sterilized in ethanol and marrow was not flushed through a 100 μm strainer. Furthermore, RPMI1640 was supplemented with 10% FBS, 2 mM EDTA, and 25 mM HEPES buffer and penicillin/streptomycin was omitted. Polymorphonuclear leukocytes (PMN) concentration and purity (>90% granulocytes) were assessed microscopically using 3% acetic acid and a hemacytometer. NOX2 activity was assessed as described above with human granulocytes.

The test system of the next data set is NOX1-NOX5. Put plainly: Expi293 whole cell assays, comparison across panel of NOX family members. Type of data set: cell-based, human. As for the experimental part:
Given concerns about previous assays for specific NOX family members we here report the first use of the Expi293 Expression System (Thermo Scientific) to overexpress NOX1, 2, 3, 4, and 5 in excess of any endogenous NOX proteins present in these cells. Transfections were performed following the manufacturer's instructions using the plasmids for each NOX as described in Supplemental Table 2 except that the enhancer solution provided with the Expi293 system was not used because it promoted enzyme activation.
After the times indicated in Supplemental Table 2, cells were washed and 50,000 added per well of a white 96-well plate (Greiner) along with 50 μM Luminol and 2.5 U horseradish peroxidase/mL in a volume of 90 μl for NOX1, NOX2, and NOX5. Inhibitors or vehicle controls were added and cells were incubated for 20 min at 37 °C prior to activation with the indicated stimuli. For NOX3 and NOX4 (constitutively active), cells were incubated with inhibitor or vehicle control prior to the addition of luminol and HRP. Chemiluminescence was measured every 2 min for 1 s per well at 37 °C in a Varioscan Multimode reader. AUC data were analyzed using GraphPad Prism using non-linear regression analysis after expressing relative to control alone (maximum ROS production).

The next data set concerns xanthine oxidase. Conditions: cited from earlier work.
Data set [3] has as its system NOX2. Conditions: read-out: IC50 for NOX2, originally reported; cited from earlier work.
Data set [4] can be described thus: Rat liver microsomal stability. Type of data set: in vitro ADME. Conditions: for half-life: SD, rat, liver microsomes, read-out: Rat_SD/Microsomes t1/2 (m). On the procedure:
as §1

Data set [5] in a line: Aqueous kinetic solubility in PBS buffer. Type of data set: physicochemical. As for the experimental part:
as §1

Data set [6] deals with T3, NOX2 (Homo sapiens, UniProt P04839).
T3 sequence (P04839 2-570 limits assumed): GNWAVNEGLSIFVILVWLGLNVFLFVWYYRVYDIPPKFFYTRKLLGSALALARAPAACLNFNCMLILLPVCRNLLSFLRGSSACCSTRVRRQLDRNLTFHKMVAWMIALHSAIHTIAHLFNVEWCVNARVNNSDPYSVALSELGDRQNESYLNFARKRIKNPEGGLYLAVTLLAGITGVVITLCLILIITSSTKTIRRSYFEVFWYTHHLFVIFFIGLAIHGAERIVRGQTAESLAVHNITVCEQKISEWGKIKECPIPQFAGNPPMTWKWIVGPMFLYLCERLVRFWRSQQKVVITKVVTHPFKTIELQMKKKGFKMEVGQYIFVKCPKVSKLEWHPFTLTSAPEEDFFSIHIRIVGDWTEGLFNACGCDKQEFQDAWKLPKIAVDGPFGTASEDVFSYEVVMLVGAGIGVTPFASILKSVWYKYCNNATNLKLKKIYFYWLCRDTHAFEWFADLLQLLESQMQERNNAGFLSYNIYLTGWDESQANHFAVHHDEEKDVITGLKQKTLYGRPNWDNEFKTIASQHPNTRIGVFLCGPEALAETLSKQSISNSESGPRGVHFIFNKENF
T3 sequence (P13498 2-195 partner limits assumed): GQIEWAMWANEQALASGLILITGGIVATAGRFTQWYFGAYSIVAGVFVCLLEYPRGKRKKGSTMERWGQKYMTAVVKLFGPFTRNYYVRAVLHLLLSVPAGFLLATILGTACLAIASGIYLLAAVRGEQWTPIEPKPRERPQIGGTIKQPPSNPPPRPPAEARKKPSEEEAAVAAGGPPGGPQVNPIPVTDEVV
Put plainly: NOX2 activity in primary human granulocytes (PMN), luminol chemiluminescence. It counts as cell-based. Also noted: When tested against NOX2 in primary human neutrophils; endogenous in cells; host or cells: primary human granulocytes (PMN) from donor blood. Conditions: mean ± SD, n in cell; read-out: NOX-2 IC50 from PMN. On the procedure: as §2

[7] abbreviates: aqueous buffer, kinetic from dmso stock, read-out: Solubility.

Molecules are shown by their SMILES. ≈ marks a conversion by molar mass, not a printed value. Like-named read-outs stand apart in the source and are kept apart here.

T1 sequence (P80457 whole entry): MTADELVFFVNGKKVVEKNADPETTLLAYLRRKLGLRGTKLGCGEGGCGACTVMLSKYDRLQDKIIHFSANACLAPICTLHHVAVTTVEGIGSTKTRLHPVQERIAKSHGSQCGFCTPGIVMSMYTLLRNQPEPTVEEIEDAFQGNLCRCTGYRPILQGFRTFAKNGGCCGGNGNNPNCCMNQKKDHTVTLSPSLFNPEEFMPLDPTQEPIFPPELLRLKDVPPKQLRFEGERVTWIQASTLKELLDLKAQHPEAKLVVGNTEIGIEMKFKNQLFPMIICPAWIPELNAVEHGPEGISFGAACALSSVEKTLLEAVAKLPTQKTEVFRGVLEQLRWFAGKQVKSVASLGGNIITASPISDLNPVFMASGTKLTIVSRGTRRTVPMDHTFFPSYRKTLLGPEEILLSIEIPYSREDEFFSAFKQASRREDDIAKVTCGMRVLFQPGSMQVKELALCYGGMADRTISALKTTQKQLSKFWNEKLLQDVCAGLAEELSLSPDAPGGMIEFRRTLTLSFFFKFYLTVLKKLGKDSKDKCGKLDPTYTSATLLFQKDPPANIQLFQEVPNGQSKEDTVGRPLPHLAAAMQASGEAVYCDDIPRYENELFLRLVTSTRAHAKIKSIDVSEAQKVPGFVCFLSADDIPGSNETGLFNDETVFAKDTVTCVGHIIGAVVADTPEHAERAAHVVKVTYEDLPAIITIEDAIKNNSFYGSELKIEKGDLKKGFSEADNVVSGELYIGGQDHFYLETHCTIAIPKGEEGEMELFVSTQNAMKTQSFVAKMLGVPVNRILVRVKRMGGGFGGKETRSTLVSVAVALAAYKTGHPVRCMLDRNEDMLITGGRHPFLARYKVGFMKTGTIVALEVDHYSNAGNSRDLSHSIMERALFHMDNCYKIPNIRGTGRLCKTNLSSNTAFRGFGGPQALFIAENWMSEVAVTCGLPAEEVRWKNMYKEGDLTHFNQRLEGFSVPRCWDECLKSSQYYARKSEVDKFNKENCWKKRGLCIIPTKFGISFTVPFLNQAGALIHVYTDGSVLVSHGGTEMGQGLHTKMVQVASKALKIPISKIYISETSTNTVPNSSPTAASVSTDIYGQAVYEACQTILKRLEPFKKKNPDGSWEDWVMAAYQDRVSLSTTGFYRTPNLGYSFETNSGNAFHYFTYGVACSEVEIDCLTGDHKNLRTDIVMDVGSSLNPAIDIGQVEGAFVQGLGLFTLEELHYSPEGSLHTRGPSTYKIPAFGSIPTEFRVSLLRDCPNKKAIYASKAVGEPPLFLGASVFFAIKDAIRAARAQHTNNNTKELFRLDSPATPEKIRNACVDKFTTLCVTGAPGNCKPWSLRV

As to `CC(C)n1cc(-c2ccc3c(c2)N(C)CC3)c2c(NS(=O)(=O)c3ccn(C)n3)ccnc21` [GSK2795039, reference compound], the “Permeability(pH7.4) (PAMPA_Pion_Lipid 1e-6 cm/s)” value in data set [1] is listed as […]. Further, the IC50 is […] at Bovine Xanthine Oxidase, 2.17 ± 1.11 µM at NOX2 [2] and […] in the data set with NOX2 [3]. The “differences in activity across the panel of NOX family members” value with NOX1-NOX5 was “unable to demonstrate significant differences in activity”. Further, the “greater concentrations required to inhibit xanthine oxidase than NOX2” value with xanthine oxidase is […]. In addition, in [4], the “Rat_SD/Microsomes t1/2 (m)” value worked out at 1.02 m. Also, the “solubility” value in [5] was 36.7 µg/mL (≈ 81.5 µM).
Consider `Cn1ccc([S+](=O)([O-])Nc2ccnc3c2c(-c2ccc4c(c2)C(=O)CC4)cn3C2CC2)n1` [NCGC00650062, CN1C=CC(=N1)[S+]([O-])(=O)NC2=C3C(=CN(C4CC4)C3=NC=C2)C5=CC6=C(CCC6=O)C=C5], for which, in data set [1], the “Permeability(pH7.4) (PAMPA_Pion_Lipid 1e-6 cm/s)” value is 88.1 1e-6 cm/s. In addition, the IC50 on Bovine Xanthine Oxidase was 3.11 µM; on NOX2 [6], greater than 20 µM. In addition, the “Rat_SD/Microsomes t1/2 (m)” value in [4] is 17.3 m. In [5], the “solubility” value was 38.6 µg/mL (≈ 86.3 µM).
With `Cn1ccc([S+](=O)([O-])Nc2ccnc3c2c(-c2ccc4c(c2)N(C2CC2)CC4)cn3CC2CC2)n1` [NCGC00650063, CN1C=CC(=N1)[S+]([O-])(=O)NC2=C3C(=CN(CC4CC4)C3=NC=C2)C5=CC6=C(CCN6C7CC7)C=C5], the Papp in data set [1] was 1230 ×10⁻⁶ cm/s. Also, the values for the IC50 on Bovine Xanthine Oxidase and at NOX2 [6] were 0.36 ± 0.51 µM and 3.02 ± 2.96 µM, respectively. The half-life in data set [4] was found to be 1.1 min. Further, the solubility in [5] (setting [7]) amounted to 1.4 µg/mL (≈ 2.87 µM).
The matching figures for `CCn1cc(-c2ccc3c(c2)N(C2CC2)CC3)c2c(N[S+](=O)([O-])c3ccn(C)n3)ccnc21` [NCGC00650067, CCN1C=C(C2=C(N[S+]([O-])(=O)C3=NN(C)C=C3)C=CN=C12)C4=CC5=C(CCN5C6CC6)C=C4]: 819 ×10⁻⁶ cm/s, 7.61 ± 10.2 µM, 2.4 ± 2.26 µM, 1 min and 13.9 µg/mL (≈ 30 µM).
Taken in the same sequence, the figures for `Cn1ccc([S+](=O)([O-])Nc2ccnc3c2c(-c2ccc4c(c2)N(C2CC2)CC4)cn3CC2CCOCC2)n1` [NCGC00650068, CN1C=CC(=N1)[S+]([O-])(=O)NC2=C3C(=CN(CC4CCOCC4)C3=NC=C2)C5=CC6=C(CCN6C7CC7)C=C5] were 907 ×10⁻⁶ cm/s, 2.3 µM, 11.8 µM, 0.9 min and 13.1 µg/mL (≈ 24.6 µM).
The matching figures for `Cn1ccc([S+](=O)([O-])Nc2ccnc3c2c(-c2ccc4c(c2)C(O)CC4)cn3C2CC2)n1` (stereo not shown) [NCGC00650073, CN1C=CC(=N1)[S+]([O-])(=O)NC2=C3C(=CN(C4CC4)C3=NC=C2)C5=CC6=C(CCC6O)C=C5]: 182 ×10⁻⁶ cm/s, 19 µM, greater than 20 µM, 18.2 min and 31.1 µg/mL (≈ 69.2 µM).
Consider `CN(C)C1CCc2ccc(-c3cn(C4CC4)c4nccc(N[S+](=O)([O-])c5ccn(C)n5)c34)cc21` (stereo not shown) [NCGC00650075, CN(C)C1CCC2=C1C=C(C=C2)C3=CN(C4CC4)C5=NC=CC(N[S+]([O-])(=O)C6=NN(C)C=C6)=C35], for which the Papp in [1] came out at 293 ×10⁻⁶ cm/s. Further, the IC50 at Bovine Xanthine Oxidase is 3.2 µM; on NOX2 [6], 0.0555 µM. Also, the half-life in [4] amounted to 14 min. The solubility in [5] (setting [7]) was determined as 39.7 µg/mL (≈ 83.3 µM).
Turning to `O=[S+]([O-])(Nc1ccnc2c1c(-c1ccc3c(c1)N(C1CC1)CC31CC1)cn2C1CC1)c1ccn(C2CC2)n1` [NCGC00650101, [O-][S+](=O)(NC1=C2C(=CN(C3CC3)C2=NC=C1)C4=CC5=C(C=C4)C6(CC6)CN5C7CC7)C8=NN(C=C8)C9CC9], in data set [1], the Papp turned out to be 81.8 ×10⁻⁶ cm/s. Besides, the IC50 at Bovine Xanthine Oxidase amounted to 1.22 ± 0.32 µM; at NOX2 [6] it was 11.6 ± 8.72 µM. Also, the half-life in data set [4] turned out to be 1.2 min. Further, in data set [5] (setting [7]), the solubility was determined as 36.8 µg/mL (≈ 69.9 µM).
